According to article PMC6284238 (Neuron, 2017):

Biological target: T1, zebrafish SARM1-TIR (Danio rerio, UniProt F1QWA8)
T1 sequence (F1QWA8 552-695 limits assumed): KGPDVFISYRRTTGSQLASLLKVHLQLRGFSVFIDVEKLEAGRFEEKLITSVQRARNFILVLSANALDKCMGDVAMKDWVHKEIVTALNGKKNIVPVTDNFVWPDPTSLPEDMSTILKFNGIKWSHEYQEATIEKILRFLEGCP
Assay: NADase assay with HPLC, purified bacterial protein
Type: biochemical

## NC(=O)c1ccc[n+]([C@@H]2O[C@H](COP(=O)([O-])OP(=O)(O)OC[C@H]3O[C@@H](n4cnc5c(N)ncnc54)[C@H](O)[C@@H]3O)[C@@H](O)[C@H]2O)c1 [NAD^+]
  NADase assay with HPLC, purified bacterial protein: bacterially expressed mouse, zebrafish, and Drosophila SARM1-TIR domains also degrade NAD^+ in vitro
